Source: US9370515B2, “Mixed lineage kinase inhibitors and method of treatments” (CALIFIA BIO, INC., priority 2013, dated 2016)

The molecules below were run against MLK-3 (Homo sapiens, UniProt Q16584) (assay: Biochemical assay for the inhibition of kinase activity for MLK-3 (33P-ATP, HOTSPOT filter binding)). Conditions: activated MLK-3 20 nM, ATP 50 μM, myelin basic protein 20 μM, 20 minutes room temperature.
Protocol: Biochemical Assay for the Inhibition of Kinase Activity for MLK-3: Myelin basic protein (20 μM final concentration) is dissolved in 20 mM Hepes (pH 7.5) containing […], […], 0.02% Brij35, 0.02 mg/ml BSA, 0.1 μM Na3VO4, 2 mM DTT, and 1% DMSO. Activated MLK-3 is added and mixed (20 nM final concentration), and inhibitors are added in DMSO. ^33P-ATP (specific activity 500 μCi/μL) is delivered into the reaction mixture to initiate the reaction (ATP concentration is 50 μM) and the mixture is incubated at room temperature for 20 minutes. % Activity is determined using a proprietary HOTSPOT™ microfluidic filter binding technology. See, Expert Opin. Drug Discov. 2008 June; 3(6): 607-621.

Chain of MLK-3 (Q16584 whole entry): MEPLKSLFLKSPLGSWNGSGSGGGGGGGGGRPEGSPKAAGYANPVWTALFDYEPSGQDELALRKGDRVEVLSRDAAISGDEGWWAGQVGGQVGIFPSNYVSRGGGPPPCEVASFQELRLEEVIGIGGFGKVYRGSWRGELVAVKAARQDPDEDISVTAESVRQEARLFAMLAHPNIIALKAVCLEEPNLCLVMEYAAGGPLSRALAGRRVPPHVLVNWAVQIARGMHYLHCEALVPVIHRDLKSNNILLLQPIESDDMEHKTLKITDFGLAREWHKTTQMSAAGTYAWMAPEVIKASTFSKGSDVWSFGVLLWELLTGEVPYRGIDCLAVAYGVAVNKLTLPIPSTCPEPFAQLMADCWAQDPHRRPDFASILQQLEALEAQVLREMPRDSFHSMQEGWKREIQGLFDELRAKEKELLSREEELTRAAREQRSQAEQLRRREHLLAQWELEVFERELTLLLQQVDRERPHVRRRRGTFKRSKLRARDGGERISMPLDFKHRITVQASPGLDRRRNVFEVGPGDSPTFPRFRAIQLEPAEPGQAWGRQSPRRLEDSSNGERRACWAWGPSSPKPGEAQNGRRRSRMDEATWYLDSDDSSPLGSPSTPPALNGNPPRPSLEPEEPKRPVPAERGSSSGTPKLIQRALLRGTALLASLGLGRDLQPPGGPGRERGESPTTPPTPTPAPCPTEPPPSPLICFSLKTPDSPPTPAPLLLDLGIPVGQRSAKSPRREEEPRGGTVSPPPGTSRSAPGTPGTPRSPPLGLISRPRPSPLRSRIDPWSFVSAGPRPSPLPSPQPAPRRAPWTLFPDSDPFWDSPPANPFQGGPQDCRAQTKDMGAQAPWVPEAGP

Compound	IC50 [µM]
COc1ccc(Nc2ccc3ncc(-c4cc5ccccc5s4)n3n2)cc1O [Compound 31, 5-(3-(benzo[b]thiophen-2-yl)imidazo[1,2-b]pyridazin-6-ylamino)-2-methoxyphenol]	< 5
OC[C@@H]1CCCN1c1ccc2ncc(-c3cc4ccccc4s3)n2n1 [Compound 127, ((S)-1-(3-(benzo[b]thiophen-2-yl)imidazo[1,2-b]pyridazin-6-yl)pyrrolidin-2-yl)methanol]	< 5
CCCN(C)c1ccc2ncc(-c3cc4ccccc4s3)n2n1 [Compound 107, 3-(benzo[b]thiophen-2-yl)-N-methyl-N-propylimidazo[1,2-b]pyridazin-6-amine]	< 5
Cc1nc2ccc(N[C@H]3CC[C@H](O)CC3)nn2c1-c1cc2ccccc2s1 [Compound 111, 4-(3-(benzo[b]thiophen-2-yl)-2-methylimidazo[1,2-b]pyridazin-6-ylamino)cyclohexanol]	< 5
COC(=O)c1cccc(Nc2ccc3ncc(-c4ccc5[nH]ccc5c4)n3n2)c1 [Compound 61, methyl 3-(3-(1H-indol-5-yl)imidazo[1,2-b]pyridazin-6-ylamino)benzoate]	< 5
CN1CCN(c2cccc(Nc3ccc4ncc(-c5cc6ccccc6s5)n4n3)c2)CC1 [Compound 13, 3-(benzo[b]thiophen-2-yl)-N-(3-(4-methylpiperazin-1-yl)phenyl)imidazo[1,2-b]pyridazin-6-amine]	< 5
CCCOc1ccc(Nc2ccc3ncc(-c4cc5cccc(OC)c5s4)n3n2)cc1OC [Compound 182, N-(3-methoxy-4-propoxyphenyl)-3-(7-methoxybenzo[b]thiophen-2-yl)imidazo[1,2-b]pyridazin-6-amine]	< 5
COc1ccc2c(c1)cc(-c1cnc3ccc(N[C@H]4CC[C@H](O)CC4)nn13)n2C [Compound 194, trans-4-(3-(5-methoxy-1-methyl-1H-indol-2-yl)imidazo[1,2-b]pyridazin-6-ylamino)cyclohexanol]	< 5
COc1cc(Nc2ccc3ncc(-c4cc5cccc(OC)c5s4)n3n2)ccc1OC(F)(F)F [Compound 184, N-(3-methoxy-4-(trifluoromethoxy)phenyl)-3-(7-methoxybenzo[b]thiophen-2-yl)imidazo[1,2-b]pyridazin-6-amine]	< 5
CN1CCN(Cc2ccc(-c3ccc4ncc(-c5cc6ccccc6s5)n4n3)cc2)CC1 [Compound 39, 3-(benzo[b]thiophen-2-yl)-6-(4-((4-methylpiperazin-1-yl)methyl)phenyl)imidazo[1,2-b]pyridazine]	< 5
COc1ccc(Nc2ccc3ncc(-c4ccc5ccccc5c4)n3n2)cc1OC [Compound 62, N-(3,4-dimethoxyphenyl)-3-(naphthalen-3-yl)imidazo[1,2-b]pyridazin-6-amine]	< 5
COc1ccc(Nc2ccc3ncc(-c4cc5cccc(C)c5[nH]4)n3n2)cc1OC [Compound 195, N-(3,4-dimethoxyphenyl)-3-(7-methyl-1H-indol-2-yl)imidazo[1,2-b]pyridazin-6-amine]	< 5
COc1ccc2[nH]c(-c3cnc4ccc(N[C@H]5CC[C@H](OC)CC5)nn34)cc2c1 [Compound 198, trans-3-(5-methoxy-1H-indol-2-yl)-N-(4-methoxycyclohexyl)imidazo[1,2-b]pyridazin-6-amine]	< 5
COc1ccc(N(C)c2ccc3ncc(-c4cc5cncc(OC)c5s4)n3n2)cc1OC [Compound 212, N-(3,4-dimethoxyphenyl)-3-(7-methoxythieno[3,2-c]pyridin-2-yl)-N-methylimidazo[1,2-b]pyridazin-6-amine]	< 5
OCCN1CCN(c2ccc3ncc(-c4cc5ccccc5s4)n3n2)CC1 [Compound 119, 2-(4-(3-(benzo[b]thiophen-2-yl)imidazo[1,2-b]pyridazin-6-yl)piperazin-1-yl)ethanol]	< 5
COc1ccc(Nc2ccc3ncc(-c4cc(OC)c(OC)c(OC)c4)n3n2)cc1OC [Compound 11, 3-(3,4,5-trimethoxyphenyl)-N-(3,4-dimethoxyphenyl)imidazo[1,2-b]pyridazin-6-amine]	< 5
COc1cc(Nc2ccc3ncc(-c4cc5ccccc5s4)n3n2)ccc1OC(C)C [Compound 30, 3-(benzo[b]thiophen-2-yl)-N-(4-isopropoxy-3-methoxyphenyl)imidazo[1,2-b]pyridazin-6-amine]	< 5
COc1ccc(Nc2ccc3ncc(-c4cc5cccc(OC(F)(F)F)c5s4)n3n2)cc1OC [Compound 188, N-(3,4-dimethoxyphenyl)-3-(7-(trifluoromethoxy)benzo[b]thiophen-2-yl)imidazo[1,2-b]pyridazin-6-amine]	< 5

Continued, values first:

IC50 [µM]	Compound
0.1 to 0.5	Cc1cccc2cc(-c3cnc4ccc(N[C@H]5CC[C@H](O)CC5)nn34)sc12 [Compound 203, trans-4-(3-(7-methylbenzo[b]thiophen-2-yl)imidazo[1,2-b]pyridazin-6-ylamino)cyclohexanol]
< 0.1	COc1ccc2[nH]c(-c3cnc4ccc(N[C@H]5CC[C@H](O)CC5)nn34)cc2c1 [Compound 85, trans-4-(3-(5-methoxy-1H-indol-2-yl)imidazo[1,2-b]pyridazin-6-ylamino)cyclohexanol]
< 0.1	COc1cc2cc(-c3cnc4ccc(Nc5ccc(OCCCO)c(OC)c5)nn34)sc2cc1OC [Compound 70, 3-(4-(3-(5,6-dimethoxybenzo[b]thiophen-2-yl)imidazo[1,2-b]pyridazin-6-ylamino)-2-methoxyphenoxy)propan-1-ol]
0.1 to 0.5	Cc1cncc2cc(-c3cnc4ccc(N(C)[C@H]5CC[C@H](O)CC5)nn34)sc12 [Compound 221, trans-4-(N-methyl-N-(3-(7-methylthieno[3,2-c]pyridin-2-yl)imidazo[1,2-b]pyridazin-6-yl)amino)cyclohexanol]
0.1 to 0.5	OC[C@H]1CC[C@H](Nc2ccc3ncc(-c4cc5ccccc5s4)n3n2)CC1 [Compound 139]
0.5 to 1	O=c1cc(Nc2ccc3ncc(-c4cc5ccccc5s4)n3n2)cc[nH]1 [Compound 41, 4-(3-(benzo[b]thiophen-2-yl)imidazo[1,2-b]pyridazin-6-ylamino)pyridin-2-ol]
0.1 to 0.5	OCCCNc1ccc2ncc(-c3cc4ccccc4s3)n2n1 [Compound 109, 3-(3-(benzo[b]thiophen-2-yl)imidazo[1,2-b]pyridazin-6-ylamino)propan-1-ol]
0.1 to 0.5	COc1ccc(Nc2ccc3ncc(-c4cc5cc(OC)c(OC)cc5[nH]4)n3n2)cc1OC [Compound 197, 3-(5,6-dimethoxy-1H-indol-2-yl)-N-(3,4-dimethoxyphenyl)imidazo[1,2-b]pyridazin-6-amine]
0.5 to 1	COc1cc(Nc2ccc3ncc(-c4cc5ccccc5s4)n3n2)cc(OC)c1OC [Compound 14, 3-(benzo[b]thiophen-2-yl)-N-(3,4,5-trimethoxyphenyl)imidazo[1,2-b]pyridazin-6-amine]
0.5 to 1	COc1ccc(Nc2ccc3ncc(-c4cc5cccc(OC(F)F)c5s4)n3n2)cc1OC [Compound 187, 3-(7-(difluoromethoxy)benzo[b]thiophen-2-yl)-N-(3,4-dimethoxyphenyl)imidazo[1,2-b]pyridazin-6-amine]
0.1 to 0.5	COc1ccc(Nc2ccc3ncc(-c4cc5cccc(OC(C)C)c5s4)n3n2)cc1OC [Compound 80, 3-(7-isopropoxybenzo[b]thiophen-2-yl)-N-(3,4-dimethoxyphenyl)imidazo[1,2-b]pyridazin-6-amine]
0.5 to 1	Cc1ccc2sc(-c3cnc4ccc(N[C@H]5CC[C@H](O)CC5)nn34)cc2c1 [Compound 192, trans-4-(3-(5-methylbenzo[b]thiophen-2-yl)imidazo[1,2-b]pyridazin-6-ylamino)cyclohexanol]
< 0.1	COc1cc2cc(-c3cnc4ccc(N(C)[C@H]5CC[C@H](O)CC5)nn34)sc2cc1OC [Compound 177, trans-4-(N-(3-(5,6-dimethoxybenzo[b]thiophen-2-yl)imidazo[1,2-b]pyridazin-6-yl)-N-methylamino)cyclohexanol]
0.5 to 1	COc1cccc2cc(-c3cnc4ccc(N[C@H]5CC[C@H](OC)CC5)nn34)sc12 [Compound 200, trans-3-(7-methoxybenzo[b]thiophen-2-yl)-N-(4-methoxycyclohexyl)imidazo[1,2-b]pyridazin-6-amine]
0.5 to 1	O[C@H]1CC[C@H](Nc2ccc3ncc(-c4cc5cc(F)ccc5s4)n3n2)CC1 [Compound 166, trans-4-(3-(5-fluorobenzo[b]thiophen-2-yl)imidazo[1,2-b]pyridazin-6-ylamino)cyclohexanol]
0.5 to 1	O[C@H]1CC[C@H](Nc2ccc3ncc(-c4ccc5cc(F)ccc5c4)n3n2)CC1 [Compound 162, trans-4-(3-(2-fluoronaphthalen-6-yl)imidazo[1,2-b]pyridazin-6-ylamino)cyclohexanol]
< 0.1	COc1cc2cc(-c3cnc4ccc(-c5ccc6[nH]ccc6c5)nn34)sc2cc1OC [Compound 69, 6-(1H-indol-5-yl)-3-(5,6-dimethoxybenzo[b]thiophen-2-yl)imidazo[1,2-b]pyridazine]
0.5 to 1	Cc1c(-c2cnc3ccc(N[C@H]4CC[C@H](O)CC4)nn23)sc2ccc(Cl)cc12 [Compound 164, trans-4-(3-(5-chloro-3-methylbenzo[b]thiophen-2-yl)imidazo[1,2-b]pyridazin-6-ylamino)cyclohexanol]
0.1 to 0.5	COc1ccc(Nc2ccc3ncc(-c4cc5cccc(OC(C)=O)c5s4)n3n2)cc1OC [Compound 78, 2-(6-(3,4-dimethoxyphenylamino)imidazo[1,2-b]pyridazin-3-yl)benzo[b]thiophen-7-yl acetate]
0.5 to 1	O=C(O)c1ccc(Nc2ccc3ncc(-c4cc5ccccc5s4)n3n2)cc1 [Compound 25, 4-(3-(benzo[b]thiophen-2-yl)imidazo[1,2-b]pyridazin-6-ylamino)benzoic acid]
